Series [1] concerns hFAP-HT1080 and WT-HT1080 xenografts. In words: small-animal PET imaging of xenograft-bearing mice. It counts as in vivo, female NMRI-nude mice. From the text: Female athymic NMRI-nude mice (Rj:NMRI-Foxn1nu, Janvier Labs, France or Charles River, Germany) between 8 and 20 weeks of age were used. Subsequently, the prepared cells (1.0–2.0 × 10^6 hFAP/WT-HT1080 per animal) were subcutaneously injected into the right and left thigh, respectively. Xenograft tissue for real-time binding experiments was derived from animals injected with both target-positive and negative cells, however only showing growth of one tumor entity. When approaching endpoints, mice were anesthetized and euthanized. The tumor was quickly removed, frozen in − 45 °C 2-methylbutane and stored in sealed tubes at − 80 °C.
PET and X-ray computed tomography (CT) were performed in a dedicated small animal scanner (nanoScan PET/CT, Mediso, Hungary). Animals received a single dynamic scan corresponding to 0–2 h post injection. The radiotracer solution (8 – 20 MBq injected activity) was delivered via an i.v. catheter (lateral tail vein) and PET acquisition was started simultaneously with the injection. Blocking was performed by pre-injection (~ 5 min prior to tracer) of 100 nmol of FAPI-04. Three-dimensional list mode data were binned (400–600 keV energy window) and sorted into 35-time frames (15 × 10 s, 5 × 30 s, 5 × 60 s, 4 × 300 s, 3 × 600 s, 3 × 1200 s). Time frames were then reconstructed using the Tera-Tomo™ 3D algorithm with a voxel size of 0.4 mm and corrected for decay, scatter, and attenuation. PET data was analyzed using Rover (ABX GmbH, Germany). Three-dimensional volumes of interest (VOI) were delineated based on organs/tissues [xenografts, kidney, liver, shoulder and muscle (~ biceps brachii)] and a fixed threshold (35% of the measured maximum intensity) was applied. This yielded standardized uptake values (SUV = [MBq detected activity/mL tissue] / [MBq injected activity/g body weight], mL/g) for the chosen VOI.

Series [2] deals with T1, hFAP (vital hFAP-HT1080 cells) (Homo sapiens, UniProt Q12884).
T1 construct: expressed in transfected cells; host or cells: HT1080 (human fibrosarcoma), lentiviral transduction
T1 sequence (Q12884 1-760): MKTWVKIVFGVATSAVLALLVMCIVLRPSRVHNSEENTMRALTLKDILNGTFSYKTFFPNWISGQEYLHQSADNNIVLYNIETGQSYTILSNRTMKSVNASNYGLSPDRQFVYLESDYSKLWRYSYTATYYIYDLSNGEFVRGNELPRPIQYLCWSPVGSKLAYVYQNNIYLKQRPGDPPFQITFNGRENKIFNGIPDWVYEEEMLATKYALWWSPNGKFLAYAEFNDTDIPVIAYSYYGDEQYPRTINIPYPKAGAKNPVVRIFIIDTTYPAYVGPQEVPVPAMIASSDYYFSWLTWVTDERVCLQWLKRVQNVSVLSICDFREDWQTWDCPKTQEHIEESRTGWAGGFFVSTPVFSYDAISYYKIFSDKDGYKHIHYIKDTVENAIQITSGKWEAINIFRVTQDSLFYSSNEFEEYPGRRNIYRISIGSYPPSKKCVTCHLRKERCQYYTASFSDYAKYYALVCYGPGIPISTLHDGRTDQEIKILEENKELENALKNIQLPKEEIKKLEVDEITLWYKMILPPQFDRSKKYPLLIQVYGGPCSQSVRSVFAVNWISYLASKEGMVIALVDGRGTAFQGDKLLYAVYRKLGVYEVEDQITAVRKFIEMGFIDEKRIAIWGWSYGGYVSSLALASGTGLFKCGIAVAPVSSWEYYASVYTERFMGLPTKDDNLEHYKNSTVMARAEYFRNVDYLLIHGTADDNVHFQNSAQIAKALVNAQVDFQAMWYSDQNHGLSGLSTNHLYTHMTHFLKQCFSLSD
In words: real-time binding (LigandTracer) to vital hFAP-HT1080 cells. The following applies: for Bmax (%): fitted per individual curve, range; for Bmax (%) / ka / kd: room temperature; for ka / kd: global fit, 1:1 model. The protocol:
(§1) To determine binding kinetics (association rate constant ka, dissociation rate constant kd, and thermodynamic dissociation constant KD), real-time assay systems (LigandTracer Yellow/White for radioactivity and Green with Red/NIR + and NIR + + /IR detectors for fluorescence; Ridgeview Instruments AB, Sweden) were utilized. In a 100 mm petri dish, cells or tissue sections in medium (3–4 mL total volume), are located on one side, while the radioactive or fluorescent signal is detected on the opposite, elevated side. Rotation on an inclined base in set intervals (30 s) allows continuous measurement of signal in the target (cells/tissue) against background area (no cells/tissue). Experiments were performed at room temperature, using CO2-independent medium, usually with 0.5–1% w/v bovine serum albumin, (#1ETA, Carl Roth, Germany). Association was determined through incubation with two distinct concentrations (between 1–5 and 4.5–10 nM, 60 min each, additive) for each compound. For that purpose, the same ligand preparation was typically employed for radioactive and fluorescent detection. This was followed by replacement with fresh medium and observation of dissociation for at least 2 h. Additionally, the dissociation rate constant was further investigated beyond 6 h, either using fluorescent detection or via gallium-67 (t1/2: 78.3 h). This approach provides reliable kinetic measurements in a 1:1 interaction setting, as previously shown (Onell and Andersson [2005]).
Binding data was evaluated using TraceDrawer (1.9.2, Ridgeview Instruments AB, Sweden). Traces were imported, potential spikes (> 100% sudden signal increases over previous datapoints) removed and each trace was normalized to its own baseline (= 0%) and highest value (= 100%, typically at the end of the second association phase). This allows comparing data across experiments and ultimately global fitting, without differences, e.g. of molar activity, affecting it. Typically, at least 3 individual traces per ligand, substrate and modality were recorded. Data was fitted in TraceDrawer using a 1:1 interaction model, with/without accounting for bulk effect. A 1:1 interaction is the simplest model, as it describes the binding of a ligand at a constant concentration to the target, with each one molecule of ligand binding to one molecule of target.

Another series concerns WT-HT1080 cells. Description: real-time binding control on wild type HT1080 cells. Particulars: cells lacking substantial FAP expression. Further details: species or system human. The protocol: as §1, with “This approach provides reliable kinetic measurements in a 1:1 interaction setting, as previously shown (Onell and Andersson [2005]).” left out
[3] abbreviates: from global fit of ka and kd, read-out: KD.
[4] abbreviates: real-time binding, live cells, read-out: binding affinity (KD).

Where two headings read alike, the source gives them in different places.

By Kd is commonly meant the concentration at which binding is half-saturated.

Take `CN(CCCN1CCN(C(=O)[C@H](CCCCNC(=O)CC[C@H](C(=O)[O-])N2CCN(CC(=O)[O-])CCN(CC(=O)[O-])CC2)NC(=O)CCOCCOCCOCCOCCNC(=O)CCCCC[N+]2=C(C=CC=CC=C3N(CCCS(=O)(=O)O)c4ccc(S(=O)(=O)O)cc4C3(C)C)C(C)(CCCS(=O)(=O)O)c3cc(S(=O)(=O)[O-])ccc32)CC1)c1ccc2nccc(C(=O)NCC(=O)N3CC(F)(F)C[C@H]3C#N)c2c1.[68Ga+3]` (stereo partly drawn) [[^68Ga]Ga-NODAGA-FAP647]: the “radioactivity in hFAP-HT1080 xenografts higher than in WT-HT1080 tumor (SUVmax)” value in series [1] (SUVmax) is given as 392%. In series [2], the “Bmax (%)” value is 84–98%, the ka worked out at 484000 M⁻¹ s⁻¹ and the kd is 6.67e-06 s⁻¹. For the same compound, the Kd in series [2] (setting [3]) came out at 0.0138 nM. Moreover, the Kd in series [2] (setting [4]) was determined as 0.014 nM. In addition, in the series on WT-HT1080 cells, the “binding to wild type HT1080 cells” value was “lacking any binding”.
In the case of `CN(CCCN1CCN(C(=O)[C@H](CCCCNC(=O)CC[C@H](C(=O)[O-])N2CCN(CC(=O)[O-])CCN(CC(=O)[O-])CC2)NC(=O)CCOCCOCCOCCOCCNC(=O)CCCCCN2C(=CC=C3CCCC(C=CC4=[N+](CCCCS(=O)(=O)[O-])c5ccc(S(=O)(=O)O)cc5C4(C)C)=C3Oc3ccc(S(=O)(=O)O)cc3)C(C)(C)c3cc(S(=O)(=O)O)ccc32)CC1)c1ccc2nccc(C(=O)NCC(=O)N3CC(F)(F)C[C@H]3C#N)c2c1.[68Ga+3]` [[^68Ga]Ga-NODAGA-FAP800], the “radioactivity in hFAP-HT1080 xenografts higher than in WT-HT1080 tumor (SUVmean)” value in series [1] (SUVmean) is 236%. In addition, in series [1] (pre-injection of unlabeled FAPI-04, depending on timepoint), the “increase of radioactivity in the kidney compared to tracer-only animals” value is “not observed”. In series [2], the “Bmax (%)” value was 91–96%, the ka turned out to be 411000 M⁻¹ s⁻¹ and the kd was 2.37e-05 s⁻¹. Besides, the Kd in series [2] (setting [3]) amounted to 0.0576 nM. Also, the Kd in series [2] (setting [4]) came to 0.058 nM. In the series with WT-HT1080 cells, the “binding to wild type HT1080 cells” value was “lacking any binding”.

The values above are taken from PMC12686243, “Synthesis and preclinical evaluation of FAP-targeting radiotracers for PET and optical imaging” (EJNMMI Radiopharmacy and Chemistry, 2025).
